From patent US8143254B2, “Methods for modulating ion channels” (Cornell Research Foundation, Inc., priority 2005, dated 2012)
Read-outs that look alike come from different tables or passages of the source.

Target: T1, Kv2.1 (Rattus norvegicus, UniProt P15387)
T1 construct: expressed in transfected cells; host or cells: Xenopus laevis oocytes (cRNA injection, pGA1 vector)
Assay: Two-electrode voltage clamp (TEVC) of Xenopus oocytes expressing Kv2.1, bath-applied compound
Assay type: cell-based
Conditions: for slope of dose response curve: Kv2.1, Example 8; for relative sensitivity of Kv2.1 and Kv3.4: Kv2.1 versus Kv3.4; for mean inhibition at 0 mV relative to +60 mV: Kv2.1, voltage dependence of block; for effect on Kv2.1 currents: 1 mM, bath applied
Excerpt: The ion channel subunit genes are in expression vectors that facilitate in vitro transcription of channel cRNA using the Ambion mMessage mMachine in vitro transcription kit. cDNA constructs are column-purified, linearized with the appropriate restriction enzyme that cuts a single site following the polyA tail, then purified by precipitation and transcribed in vitro using a promoter, such as T7, T3 and SP6. Transcribed cRNA is purified by precipitation and resuspended in RNAse-free water ready for injection. Each transcription can provide enough cRNA for several months of experiments.
Stage V-VI Xenopus oocytes are separated into small groups using forceps, defolliculated by agitation in Ca^2+-free Ringer solution containing collagenase for one hour, washed, then stored at 15° C. in full Ringers solution before injection. cRNA sufficient to give 1-10 μA of current at physiological voltages for each channel type is injected into Xenopus oocytes (selected by appearance for overall health and uniformity of color) using a Sutter manual injector (typically 0.1-5 ng cRNA in a volume of 25-50 nl). The oocytes are then stored for 1-3 days at 15° C. before TEVC recording. Beta subunit cRNA is co-injected as appropriate, typically 2 ng per oocyte.
Whole cell oocyte experiments are performed using a Warner OC-725C amplifier and pClamp9 software with oocytes bathed in a small-volume Warner oocyte bath and viewed with a Fisher dissection microscope. Bath solution for whole cell oocyte recordings, e.g., for potassium channel analysis, is generally (in mM): 96 NaCl, 4 KCl, 1 MgCl2, 0.3 CaCl2, 10 HEPES (Ph 7.4); whole-cell oocyte TEVC pipettes are filled with 3 M KCl. Oocyte patches are studies using an Axon Instruments small-volume bath, viewed with an Olympus IX50 inverted microscope, and recordings made using an Axon Multiclamp 700 A Amplifier and pCLAMP9 software (Axon Instruments). Extracellular solution, e.g., for potassium channel analysis, is generally (in mM): 135 NaCl, 5 KCl, 1.2 MgCl2, 5 HEPES, 2.5 CaCl2, 10 D-glucose (Ph 7.4). Intracellular solution, e.g., for potassium channel analysis, is generally (in mM): 10 NaCl, 117 KCl, 2 MgCl2, 11 HEPES, 11 EGTA, ICaCl2 (Ph 7.2). Patch pipettes are approximately 3-5 MΩ resistance when filled with recording solution.
Quantitative aspects of ion action on ion channels are compared using standard pulse protocols. Pulse times and voltages will vary according to which currents are being studied. […] Drug inhibition constants are calculated after generating a dose response curve by fitting with a logistic dose-response function (see equation (i) below). Typically, 5-20 cells per group are recorded from for heterologous expression experiments. Values are to be stated as mean±SEM with statistical significance set at p<0.05 (unpaired students t-test, ANOVA or the Mann-Whitney Rank Sum Test as appropriate).
Injected oocytes, bathed in bath solution containing 4 mM KCl, unless otherwise stated, are impaled with current and voltage electrodes and clamped at −80 mV holding potential using a Warner OC-725C amplifier. […] Drug concentrations are chosen to ensure inhibition values between 0 and 90-100% with at least 3 values within the linear portion of the curve so that the inhibition constant (Ki) can be calculated accurately by fitting with a logistic dose-response function (formula (i)) using the Origin 6.1 graph package.
Kv2.1 mutants were constructed using the QuickChange Multi Site-Directed Mutagenesis Kit (Stratagene, La Jolla, Calif.). […] For oocyte expression, Kv3.4 was in pBF1, Kv4.2 was in pRAT. cRNA transcripts were produced from SacII-linearized (Kv2.1), Mlullinearized (Kv3.4) and Not1-linearized (Kv4.2) DNA templates using the T3 (Kv2.1), SP6 (Kv3.4) and T7 (Kv4.2) mMessage mMachine kits (Ambion, Austin, Tex.). cRNA was quantified by spectrophotometry and its size integrity verified by gel electophoresis.

[1] = IC50, Kv2.1, logistic dose response fit, Example 8

T1 sequence (P15387 whole entry): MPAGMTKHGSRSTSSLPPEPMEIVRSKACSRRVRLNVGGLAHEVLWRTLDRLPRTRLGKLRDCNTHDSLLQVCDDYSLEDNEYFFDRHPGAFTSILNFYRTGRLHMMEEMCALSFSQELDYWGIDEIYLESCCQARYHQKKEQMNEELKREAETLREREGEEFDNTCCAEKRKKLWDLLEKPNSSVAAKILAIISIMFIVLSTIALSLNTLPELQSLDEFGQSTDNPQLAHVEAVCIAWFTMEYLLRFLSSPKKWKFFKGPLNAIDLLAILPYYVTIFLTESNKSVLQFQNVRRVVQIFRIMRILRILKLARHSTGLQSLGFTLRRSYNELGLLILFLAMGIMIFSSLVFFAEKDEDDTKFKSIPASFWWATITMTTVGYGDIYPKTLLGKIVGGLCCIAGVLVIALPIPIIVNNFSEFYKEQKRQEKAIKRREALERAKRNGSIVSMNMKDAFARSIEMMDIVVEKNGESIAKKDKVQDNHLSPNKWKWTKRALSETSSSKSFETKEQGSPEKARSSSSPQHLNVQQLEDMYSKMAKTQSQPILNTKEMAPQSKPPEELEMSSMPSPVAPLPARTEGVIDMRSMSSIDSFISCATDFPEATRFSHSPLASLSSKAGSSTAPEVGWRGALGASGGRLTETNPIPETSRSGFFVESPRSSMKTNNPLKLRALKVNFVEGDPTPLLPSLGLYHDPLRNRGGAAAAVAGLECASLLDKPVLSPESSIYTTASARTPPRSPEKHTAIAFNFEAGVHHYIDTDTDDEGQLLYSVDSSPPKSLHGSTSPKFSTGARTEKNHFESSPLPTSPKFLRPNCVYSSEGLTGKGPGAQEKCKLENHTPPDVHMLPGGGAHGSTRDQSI

C(CCCC[N+]12CCN(CC1)CC2)CCC[N+]12CCN(CC1)CC2 [TG27, 1,8-[bis(4-aza-1-azoniabicyclo[2.2.2]octanyl)]octane]
IC50 [1]: 270 ± 66.4 µM | slope of dose response curve: 2.1±0.8 | relative sensitivity of Kv2.1 and Kv3.4: Kv2.1 was more sensitive than Kv3.4

CCCCCCCCCCCCCCCC[N+]12CCN(CC1)CC2 [TA279, 1-aza-4-azonia-4-hexadecylbicyclo[2.2.2]octane]
sensitivity of Kv2.1 currents to TA279 relative to JE188: 20 fold | inhibition of Kv2.1 (1 μM): inhibiting | inhibition of Kv2.1 (5 mM): almost complete inhibition | IC50 [1]: 1.9 ± 3.6 µM | slope of dose response curve: 0.6±0.4 | mean inhibition at 0 mV relative to +60 mV: 3 fold | p (Hill slope) of logistic dose-response fit (Kv2.1 alone, Example 4): 0.8±0.1 | time for washout (compared with TEA): several minutes | IC50 (x0 of logistic dose-response fit of current inhibition, Kv2.1 alone, external bath application, Example 4): 1 ± 0.8 µM

c1cc(C[N+]23CCN(CC2)CC3)ccc1C[N+]12CCN(CC1)CC2 [JC638.2α, α,α′-[bis(4-aza-1-azoniabicyclo[2.2.2]octanyl)]p-xylene]
effect on Kv2.1 currents: significant inhibition | slope of dose response curve: 1.4±0.1 | IC50 (Kv2.1, logistic dose response fit, Example 8, read-out: IC50): 186 ± 17 µM | relative sensitivity of Kv2.1 and Kv3.4: significantly differentiate between Kv2.1 and Kv3.4 | voltage dependence of block (inhibition attenuated at more positive voltages): voltage dependent block

C(CC[N+]12CCN(CC1)CC2)C[N+]12CCN(CC1)CC2 [TG26]
effect on Kv2.1 currents: less effective than TG27 | relative sensitivity of Kv2.1 and Kv3.4: Kv2.1 was more sensitive than Kv3.4

CCCCCCCCCCCC[N+]12CCN(CC1)CC2 [JE188, 1-aza-4-azonia-4-dodecylbicyclo[2.2.2]octane]
inhibition of Kv2.1 (50 μM): significantly inhibited | inhibition of Kv2.1 (250 μM): almost complete inhibition | slope of dose response curve: 1.4±0.1 | mean inhibition at 0 mV relative to +60 mV: 3 fold | p (Hill slope) of logistic dose-response fit (Kv2.1 alone, Example 4): 1.4±0.1 | IC50 (Kv2.1 alone, external bath application, Example 4, read-out: x0 of logistic dose-response fit of current inhibition (converted)): 23.3 ± 2.1 µM | sensitivity of Kv2.1 currents to compound relative to tetraethylammonium (externally applied): 500 fold
